In paper PMC4072711, “A GPBAR1 (TGR5) Small Molecule Agonist Shows Specific Inhibitory Effects on Myeloid Cell Activation In Vitro and Reduces Experimental Autoimmune Encephalitis (EAE) In Vivo” (PLoS ONE, 2014) one finds EC50 data, which are given here for one substance.

In the assay the target is T1, GPBAR1 (TGR5) (Homo sapiens, UniProt Q8TDU6).
T1 sequence (Q8TDU6 1-330): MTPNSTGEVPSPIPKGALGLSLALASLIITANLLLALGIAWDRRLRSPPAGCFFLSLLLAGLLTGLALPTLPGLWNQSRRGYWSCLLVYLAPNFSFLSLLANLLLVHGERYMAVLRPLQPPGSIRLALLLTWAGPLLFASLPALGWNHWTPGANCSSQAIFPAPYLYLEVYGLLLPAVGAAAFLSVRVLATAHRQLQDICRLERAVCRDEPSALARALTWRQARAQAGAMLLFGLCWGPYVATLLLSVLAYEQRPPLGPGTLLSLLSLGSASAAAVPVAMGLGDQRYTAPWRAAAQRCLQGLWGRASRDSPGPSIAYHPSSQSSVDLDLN
In words: AlphaScreen cAMP assay in CHO cells expressing human GPBAR1; no response in parental CHO cells.

With BIX02694, the EC50 (usually the concentration that produces a half-maximal response) was determined as 9 nM.
